From ChEMBL document CHEMBL5331085 (Eur J Med Chem, 2023)
In brackets after ≈: the same amount, converted by molar mass. Activity calls are given as the source filed them. The calls are words filed in the database; no cut-off is given here.

Legend:
[1] = tested on: Enterococcus faecium; assay: Antimicrobial activity against Enterococcus faecium ATCC 29212 incubated for 16 to 20 hrs by CLSI based broth dilution method; type: functional; conditions: Enterococcus faecium, ATCC 29212, time 16-20 hrs; read-out: MIC
[2] = tested on: Cell membrane; assay: Induction of membrane depolarization in Staphylococcus aureus ATCC 29213 assessed as increase in fluorescence intensity at 16 ug/ml treated for 6 mins prior to compound addition and further measured for 20 mins by DiSC3-5 dye based fluorescence analysis; conditions: dose 16.0 µg/ml
[3] = tested on: Stenotrophomonas maltophilia; assay: Antimicrobial activity against Stenotrophomonas maltophilia ATCC 17808 incubated for 16 to 20 hrs by CLSI based broth dilution method; type: functional; conditions: Stenotrophomonas maltophilia, ATCC 17808; time 16-20 hrs; read-out: MIC
[4] = tested on: Staphylococcus aureus; assay: Induction of ROS accumulation in Staphylococcus aureus ATCC 29213 at 0.25 to 0.5 ug/ml incubated for 30 mins by DCF-DA staining based fluorescence analysis; type: functional, organism-based; conditions: dose 0.25-0.5 µg/ml
[5] = tested on: Staphylococcus aureus; assay: Bactericidal activity against Staphylococcus aureus ATCC 29213 assessed as fold increase in MIC incubated for 16 to 20 hrs in presence of 50% serum by broth dilution method relative to control; type: functional; conditions: time 16-20 hrs
[6] = Cytotoxicity against HUVEC cells assessed as inhibition of cell growth incubated for 72 hrs by CCK-8 assay; type: toxicity, cell-based; conditions: human
[7] = tested on: Staphylococcus aureus; assay: Induction of ROS accumulation in Staphylococcus aureus ATCC 29213 at 1 ug/ml incubated for 30 mins by DCF-DA staining based fluorescence analysis; type: functional, organism-based; conditions: dose 1.0 µg/ml
[8] = tested on: Staphylococcus aureus; assay: Bactericidal activity against Staphylococcus aureus ATCC 29213 assessed as fold increase in MIC incubated for 16 to 20 hrs in presence of 50% plasma by broth dilution method relative to control; type: functional; conditions: time 16-20 hrs
[9] = tested on: Staphylococcus aureus; assay: Induction of ROS accumulation in Staphylococcus aureus ATCC 29213 at 1 ug/ml incubated for 30 mins in presence of N-acetyl-L-cysteine by DCF-DA staining based fluorescence analysis; type: functional, organism-based; conditions: dose 1.0 µg/ml
[10] = tested on: Staphylococcus aureus; assay: Antimicrobial activity against Staphylococcus aureus ATCC 29213 incubated for 16 to 20 hrs by CLSI based broth dilution method; type: functional; conditions: Staphylococcus aureus, ATCC 29213; time 16-20 hrs; read-out: MIC
[11] = Cytotoxicity against human BGC cells assessed as inhibition of cell growth incubated for 72 hrs by CCK-8 assay; type: toxicity, cell-based
[12] = tested on: Cell membrane; assay: Induction of membrane damage in Staphylococcus aureus ATCC 29213 assessed as sticky appearance of bacterial cells at 8 ug/ml incubated for 6 hrs by scanning electron microscopic analysis; type: subcellular; conditions: dose 8.0 µg/ml
[13] = tested on: Staphylococcus aureus; assay: Antibacterial activity against Staphylococcus aureus ATCC 29213 assessed as inhibition of bacterial growth at 1 ug/ml incubated for 16 to 18 hrs in presence of genomic DNA at 0.125 to 4 ug/ml by microplate reader analysis; type: functional, organism-based; conditions: dose 1.0 µg/ml, time 16-18 hrs
[14] = tested on: Staphylococcus aureus; assay: Antibacterial activity against Staphylococcus aureus ATCC 29213 assessed as fold increase in MIC incubated for 18 hrs in presence of phosphatidylethanolamine at 64 ug/ml incubated for 18 hrs by checkerboard dilution assay relative to control; type: functional
[15] = tested on: Cell membrane; assay: Induction of membrane damage in Staphylococcus aureus ATCC 29213 assessed as membrane collapse with flowing contents at 8 ug/ml incubated for 6 hrs by scanning electron microscopic analysis; type: subcellular; conditions: dose 8.0 µg/ml
[16] = tested on: Cell membrane; assay: Induction of membrane depolarization in Staphylococcus aureus ATCC 29213 assessed as increase in fluorescence intensity treated for 6 mins prior to compound addition and further measured for 20 mins by DiSC3-5 dye based fluorescence analysis; type: subcellular; conditions: dose 16-64 µg/ml
[17] = Induction of drug resistance in Staphylococcus aureus ATCC 29213 assessed as test compound MIC at sub-MIC measured after 20 days (reference value: 1 ug/ml); type: functional; conditions: ATCC 29213, 480 h, time 20 day
[18] = tested on: Staphylococcus aureus; assay: Antimicrobial activity against methicillin-resistant Staphylococcus aureus infected in Kunming female mouse assessed as reduction in neutrophil levels in skin at 5 to 10 mg/kg/day administered at labeled position and measured after 24 hrs by H and E staining based analysis; type: functional, organism-based; conditions: dose 5-10 mg/kg/day
[19] = tested on: Cell membrane; assay: Induction of membrane disruption in Staphylococcus aureus ATCC 29213 assessed as nucleic acid leakage at 16 ug/ml incubated for 2 hrs by ultra-fine fluorescence spectrophotometry analysis; conditions: dose 16.0 µg/ml
[20] = tested on: Cell membrane; assay: Induction of membrane damage in Staphylococcus aureus ATCC 29213 assessed as change in membrane shape at 8 ug/ml incubated for 6 hrs by scanning electron microscopic analysis; conditions: dose 8.0 µg/ml
[21] = tested on: Staphylococcus aureus; assay: Induction of ROS accumulation in Staphylococcus aureus ATCC 29213 at 0.5 ug/ml incubated for 30 mins by DCF-DA staining based fluorescence analysis; type: functional, organism-based; conditions: dose 0.5 µg/ml
[22] = Hemolytic activity in sheep erythrocytes incubated for 1 hr by absorbance based analysis; type: toxicity, cell-based, Ovis aries, Erythrocyte; conditions: sheep erythrocytes
[23] = tested on: Escherichia coli; assay: Antimicrobial activity against Escherichia coli ATCC 25922 incubated for 16 to 20 hrs by CLSI based broth dilution method; type: functional; conditions: Escherichia coli, ATCC 25922; time 16-20 hrs; read-out: MIC
[24] = tested on: Staphylococcus aureus; assay: Antibacterial activity against Staphylococcus aureus ATCC 29213 assessed as fold increase in MIC incubated for 18 hrs in presence of phosphatidylglycerol incubated for 18 hrs by checkerboard dilution assay relative to control; type: functional
[25] = tested on: Staphylococcus aureus; assay: Bactericidal activity against Staphylococcus aureus ATCC 29213 assessed as remaining bacterial concentration at 8 ug/ml measured after 8 hrs; type: functional; conditions: dose 8 µg/ml
[26] = tested on: Staphylococcus aureus; assay: Antibacterial activity against Staphylococcus aureus ATCC 29213 assessed as increase in MIC incubated for 18 hrs in presence of cardiolipin incubated for 18 hrs by checkerboard dilution assay; type: functional, organism-based
[27] = tested on: Staphylococcus aureus; assay: Bactericidal activity against Staphylococcus aureus ATCC 29213 incubated for 16 to 20 hrs in presence of 50% plasma by broth dilution method; type: functional, organism-based; conditions: time 16-20 hrs
[28] = tested on: Cell membrane; assay: Induction of membrane disruption in Staphylococcus aureus ATCC 29213 assessed as increase in red fluorescence at 8 ug/ml incubated for 30 mins by DAPI/PI staining based confocal microscopic analysis; type: subcellular; conditions: dose 8.0 µg/ml
[29] = Cytotoxicity against human WPMY-1 cells assessed as inhibition of cell growth incubated for 72 hrs by CCK-8 assay; type: toxicity, cell-based
[30] = tested on: Staphylococcus aureus; assay: Antimicrobial activity against methicillin-resistant Staphylococcus aureus infected in Kunming female mouse assessed as reduction in bacterial load in skin at 10 mg/kg/day administered at labeled position and measured after 24 hrs relative to control; type: functional; set-up: scale not given: the % may be the effect or the level left
[31] = tested on: Cell membrane; assay: Induction of membrane damage in Staphylococcus aureus ATCC 29213 assessed as shrunken bacterial cell surface at 8 ug/ml incubated for 6 hrs by scanning electron microscopic analysis; type: subcellular; conditions: dose 8.0 µg/ml
[32] = tested on: Staphylococcus aureus; assay: Antimicrobial activity against methicillin-resistant Staphylococcus aureus infected in Kunming female mouse assessed as reduction in bacterial load in skin at 5 mg/kg/day administered at labeled position and measured after 24 hrs relative to control; type: functional; set-up: scale not given: the % may be the effect or the level left
[33] = tested on: Staphylococcus aureus; assay: Bactericidal activity against Staphylococcus aureus ATCC 29213 assessed as reduction in bacterial growth at 8 ug/ml measured upto 24 hrs; type: functional, organism-based; conditions: dose 8.0 µg/ml
[34] = tested on: Staphylococcus aureus; assay: Antimicrobial activity against methicillin-resistant Staphylococcus aureus infected in Kunming female mouse assessed as reduction in skin inflammation at 5 to 10 mg/kg/day administered at labeled position and measured after 24 hrs by H and E staining based analysis; type: functional, organism-based; conditions: dose 5-10 mg/kg/day
[35] = tested on: Staphylococcus aureus; assay: Antimicrobial activity against methicillin-resistant Staphylococcus aureus incubated for 16 to 20 hrs by CLSI based broth dilution method; type: functional; conditions: time 16-20 hrs
[36] = tested on: Staphylococcus aureus; assay: Antimicrobial activity against methicillin-resistant Staphylococcus aureus incubated for 16 to 20 hrs by broth microdilution method; type: functional; conditions: time 16-20 hrs

## CC[C@H](C)[C@H](NC(=O)CN)C(=O)NCC(=O)N[C@@H](C)C(=O)N[C@H](C(=O)N[C@@H](CC(C)C)C(=O)N[C@@H](CCCCN)C(=O)N[C@H](C(=O)N[C@@H](CC(C)C)C(=O)N[C@H](C(=O)N[C@H](C(=O)NCC(=O)N[C@@H](CC(C)C)C(=O)N1CCC[C@H]1C(=O)N[C@@H](C)C(=O)N[C@@H](CC(C)C)C(=O)N[C@H](C(=O)N[C@@H](CO)C(=O)N[C@@H](Cc1c[nH]c2ccccc12)C(=O)N[C@H](C(=O)N[C@@H](CCCCN)C(=O)N[C@@H](CCCNC(=N)N)C(=O)N[C@@H](CCCCN)C(=O)N[C@@H](CCCNC(=N)N)C(=O)N[C@@H](CCC(N)=O)C(=O)N[C@@H](CCC(N)=O)C(N)=O)[C@@H](C)CC)[C@@H](C)CC)[C@@H](C)O)[C@@H](C)O)C(C)C)C(C)C [MELITTIN]
[1]
  MIC: 2 µg/mL (≈ 0.703 µM)
[2]
  Activity: Active
[3]
  MIC: 8 µg/mL (≈ 2.81 µM)
[4]
  Activity: inactive
[5]
  fold change (FC): >32
[6]
  IC50 at 72 h: 5.8 µg/mL (≈ 2.04 µM)
[7]
  Activity: Active
[8]
  fold change (FC): >32
[9]
  Activity: inactive

## CCCCCC[N+](C)(C)CCCOc1cccc(-c2cccc(OCCC[N+](C)(C)CCCCCC)c2)c1.[Br-].[Br-]
[1]
  MIC: 8 µg/mL
[10]
  MIC: 1 µg/mL
[11]
  IC50 at 72 h: 18.8 µg/mL
[12]
  Activity: Active
[3]
  MIC: 16 µg/mL
[13]
  Activity: Active
[14]
  fold change (FC): 2
[15]
  Activity: Active
[16]
  Activity: Dose-Dependent Effect
[17]
  MIC: 1 µg/mL
[18]
  Activity: Active
[19]
  Activity: Active
[6]
  IC50 at 72 h: 24.6 µg/mL
[20]
  Activity: Active
[21]
  Activity: Active
[22]
  HC50 at 1 h: 905 µg/mL
[7]
  Activity: inactive
[23]
  MIC: 16 µg/mL
[24]
  fold change (FC): 16
[25]
  Activity: <1 10^2CFU/ml
[26]
  Activity: Active
[27]
  Activity: Active
[28]
  Activity: Active
[29]
  IC50 at 72 h: 23.3 µg/mL
[30]
  Activity: 99.93%
[31]
  Activity: Active
[32]
  Activity: 99.67%
[33]
  Activity: Active
[34]
  Activity: Active
[9]
  Activity: inactive
[35]
  MIC90: 1 µg/mL

## CCCCCCCC[N+](C)(C)CCCCCOc1ccc(OCCCCC[N+](C)(C)CCCCCCCC)cc1.[Br-].[Br-]
[36]
  MIC: 0.25 µg/mL
[22]
  HC50 at 1 h: 1210 µg/mL
